ChEMBL document CHEMBL5346970, “Targeting EP2 Receptor for Drug Discovery: Strengths, Weaknesses, Opportunities, and Threats (SWOT) Analysis” (J Med Chem, 2023)

What was measured:
SK-N-AS [1] = assay: Antitumor activity against human SK-N-AS cells xenografted in athymic nude mouse assessed as reduction in tumor proliferation at 20 mg/kg, ip administered once daily for 18 days by Ki-67 staining based immunohistochemistry analysis relative to control; format: functional; set-up: scale not given: the % may be the effect or the level left; conditions: time 18 day
SK-N-AS [2] = assay: Antitumor activity against human SK-N-AS cells xenografted in athymic nude mouse assessed as reduction in tumor proliferation at 10 mg/kg, ip administered once daily for 18 days by Ki-67 staining based immunohistochemistry analysis relative to control; format: functional; set-up: scale not given: the % may be the effect or the level left; conditions: time 18 day
[3] = target: Prostaglandin E2 receptor EP2 subtype (Mus musculus, UniProt Q62053); assay: Antagonist activity at EP2 receptor in C57BL/6 mouse trachea assessed as inhibition of PGE2-induced relaxation in rings of trachea pretreated for 30 mins in presence of carbachol followed by PGE2 relaxation; format: functional, tissue-based
Chain of Prostaglandin E2 receptor EP2 subtype (Q62053 whole entry): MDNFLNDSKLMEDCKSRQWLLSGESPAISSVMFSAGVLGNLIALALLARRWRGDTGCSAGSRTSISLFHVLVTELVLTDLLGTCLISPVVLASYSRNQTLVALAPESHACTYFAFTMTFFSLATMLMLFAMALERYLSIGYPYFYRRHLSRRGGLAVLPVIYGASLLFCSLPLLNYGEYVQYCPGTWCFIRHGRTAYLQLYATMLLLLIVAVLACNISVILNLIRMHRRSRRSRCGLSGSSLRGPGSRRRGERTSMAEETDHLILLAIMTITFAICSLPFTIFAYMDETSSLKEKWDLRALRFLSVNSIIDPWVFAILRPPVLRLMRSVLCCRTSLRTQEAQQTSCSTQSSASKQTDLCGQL

[4] = Terminal half life in Sprague-Dawley rat at 0.1 ml/kg, po; format: ADME; conditions: in vivo, read-out: beta t1/2 (converted)
[5] = Oral bioavailability in Sprague-Dawley rat at 0.1 ml/kg; format: ADME, organism-based; conditions: in vivo

| SMILES | Activity (SK-N-AS [1]) | Activity (SK-N-AS [2]) | IC50 [3] | half-life [4] | bioavailability [5] |
| --- | --- | --- | --- | --- | --- |
| CCc1nnc(NS(=O)(=O)c2ccc(NC(=S)NC(=O)/C=C/c3ccc(F)cc3)cc2)s1 | 55% | 25% |  |  |  |
| COc1ccc2cc(OCC3(C(=O)O)CN(C(=O)c4ccc(F)cc4)C3)ccc2c1 [PF-04418948] |  |  | 2.7 nM | 8.8 h | 78% |
